This note sets out measurements from US9175260B2, “Early mesoderm cells, a stable population of mesendoderm cells that has utility for generation of endoderm and mesoderm lineages and multipotent migratory cells (MMC)” (TheUniversity of Georgia Research Foundation, Inc., priority 2007, dated 2015).

Holding throughout (format): cell-based, human
For experiment [1], the system named is hESCs (BG01). Put plainly: Mesendoderm generation from hESCs with BIO in defined media (Q-PCR, immunostaining). The note with it: BIO 2 μM. As for the experimental part: hESCs (BG01) were plated as per the conditions specified in Example 1 in defined media. After ˜16-24 hours, BIO (2 μM) was added to cultures.
A further experiment deals with hESCs (BG02). The experiment in a line: BIO added to hESCs grown in MEF-CM (immunostaining). How it is done: hESCs (BG02) grown in MEF-CM on Matrigel coated plates, were passaged in MEF-CM plus BIO (2 μM) over 4 days.
The test system of the next experiment is hESC (BG02). Put plainly: Generation of definitive endoderm: BIO and SB431542 followed by high Activin A (Q-PCR). The note with it: defined media minus IGF-I and Heregulin plus Activin A 100 ng/ml, 4 days, after 4 days BIO/SB431542. As for the experimental part:
hESC were taken and grown in defined media in the presence of BIO (2 μM) and SB431542 (20 μM) for 4 days. The cells were then split 1-4 into the same media or defined media minus IGF-I and heregulin and with additional Activin A (100 ng/ml) for an additional 4 days (FIG. 22). Samples (BG02) were taken every 2 days up to 8 days for Q-PCR analysis. […] This cell type persisted in the presence of BIO/SB431542.

The subject of experiment [2] is cells passaged in BIO/SB431542 (MMCs). The experiment in a line: Differentiation of MMCs to endoderm with Activin A after removal of BIO/SB431542 (Q-PCR). The settings on record: 6 passages in BIO/SB431542, then Activin A to 100 ng/ml without IGF-I, heregulin; 4 day period. From the text:
We consider these cells to be pre-mesoderm and pre-endoderm but no longer hESCs. This raised the possibility that these cells retained a multipotent differentiation potential that could be manifested following removal of BIO/SB431542 and by addition of cell differentiation factors. To test the possibility that the cells in BIO/SB431542-containing media could be further differentiated into endoderm, we grew cells for 6 passages in BIO/SB431542, then removed BIO/SB431542, and IGF-I, heregulin (two activators of PI3K activity) from the media and supplemented with Activin A to 100 ng/ml. These are conditions that support differentiation of hESCs to definitive endoderm. Over a 4 day period following the switch to the endoderm differentiation conditions we observed increases in Sox17 and CXCR4 transcripts while Nanog, T and eomesodermin transcripts remained low (FIG. 32). […] We propose that the BIO/SB431542 treated cells could also be differentiated into mesoderm and perhaps other lineages (ectoderm) if exposed to the appropriate specification factors. For example, we believe that BIO/SB431542-treated cells could be converted to mesoderm cells if BIO/SB431542 was removed and BMP4 was added to the media.

In experiment [3] the test system is hESCs (BG01). The experiment in a line: Mesendoderm generation from hESCs with Wnt3a in defined media (Q-PCR, immunostaining). The note with it: Wnt3a 25 ng/ml. As for the experimental part: hESCs (BG01) were plated as per the conditions specified in Example 1 in defined media. After ˜16-24 hours, human Wnt3a (25 ng/ml; R&D Systems) was added to cultures.
[4] abbreviates: involving an epithelial to mesenchymal transition.
Setting [5] is: BIO 2 μM, 4 days, cells passaged with trypsin.
Where [6] appears, read: BIO, cells passaged with collagenase.

Regarding `O=C1Nc2cc(Br)ccc2/C1=C1/Nc2ccccc2/C1=N\O` [BIO, (2′Z,3′E)-6-Bromoindirubin-3′-oxime], in the experiment with hESCs (BG01) [1] (48 hours), the “Snail localisation (immunostaining)” value was “accumulates in the nucleus” and the “T/brachyury levels (immunostaining)” value was “increased”. The “E-cadherin and Nanog (immunostaining)” value in the experiment with hESCs (BG01) [1] (after 48 hours) was “downregulated”. Moreover, in the experiment on hESCs (BG01) [1] (defined media), the “Nanog transcripts (Q-PCR)” value is “decreased by 48 hours”; the “T and MixL1 mRNA levels (Q-PCR)” value was “increased over the first 24 hours then decreased thereon”. The differentiation outcome with hESCs (BG01) [1] (setting [4]) is recorded as “caused hESCs to differentiate to mesendoderm”. Moreover, the differentiation outcome in the experiment with hESCs (BG02) (BIO 2 μM) was “promotes an epithelial to mesenchymal transition and differentiation to mesendoderm”. Further, in the experiment on hESCs (BG02) (setting [5]), the “Oct4 and E-cadherin (immunostaining)” value is given as “downregulation”; the “T/Brachyury (immunostaining)” value is on record as “upregulation”. In the experiment with hESCs (BG02) (setting [6]), the “Nanog and E-cadherin (immunostaining)” value is recorded as “downregulation”; the “T/Brachyury (immunostaining)” value is listed as “upregulation”.

B1: Activin A: growth factor (R&D Systems), used at high levels (100 ng/ml) to produce definitive endoderm (protein, UniProt P08476 311-426, looked up)
Inhibin beta A chain: GLECDGKVNICCKKQFFVSFKDIGWNDWIIAPSGYHANYCEGECPSHIAGTSGSSLSFHSTVINHYRMRGHSPFANLKSCCVPTKLRPMSMLYYDDGQNIIKKDIQNMIVEECGCS
As for B1, the “differentiation after switch to Activin A (Q-PCR: Sox17, CXCR4 upregulated, FoxF1 absent)” value with hESC (BG02) is given as “further differentiated into DE”. In experiment [2], the “Nanog, T and eomesodermin transcripts (Q-PCR)” value is on record as “remained low”; the “Sox17 and CXCR4 transcripts (Q-PCR)” value was “increases”.

B2: Wnt3a: canonical Wnt signaling molecule; human Wnt3a (R&D Systems) (protein, UniProt P56704 19-352, looked up)
Protein Wnt-3a: SYPIWWSLAVGPQYSSLGSQPILCASIPGLVPKQLRFCRNYVEIMPSVAEGIKIGIQECQHQFRGRRWNCTTVHDSLAIFGPVLDKATRESAFVHAIASAGVAFAVTRSCAEGTAAICGCSSRHQGSPGKGWKWGGCSEDIEFGGMVSREFADARENRPDARSAMNRHNNEAGRQAIASHMHLKCKCHGLSGSCEVKTCWWSQPDFRAIGDFLKDKYDSASEMVVEKHRESRGWVETLRPRYTYFKVPTERDLVYYEASPNFCEPNPETGSFGTRDRTCNVSSHGIDGCDLLCCGRGHNARAERRREKCRCVFHWCCYVSCQECTRVYDVHTCK
Turning to B2, in the experiment with hESCs (BG01) [3] (48 hours), the “T/brachyury levels (immunostaining)” value is recorded as “increased”; the “β-catenin and Snail localisation (immunostaining)” value is on record as “accumulate in the nucleus”. In the experiment on hESCs (BG01) [3] (after 48 hours), the “E-cadherin and Nanog (immunostaining)” value is recorded as “downregulated”. Further, in the experiment with hESCs (BG01) [3] (defined media), the “Nanog transcripts (Q-PCR)” value was “decreased by 48 hours”; the “T, Eomes and MixL1 mRNA levels (Q-PCR)” value is on record as “increased over 1-2 days, then decreased by day 5”. The differentiation outcome with hESCs (BG01) [3] (setting [4]) was “caused hESCs to differentiate to mesendoderm”.
